Laboratory results taken from a melting point compilation (Tetko et al.; mined from patent text by program, amines drawn as free bases though some values may be those of a salt).

Structure (SMILES) | melting point
CC(C)C1CNCc2cccc3[nH]c(=O)n1c23 (stereo unspecified) | 167 °C
OCc1cc(I)cc(I)c1 | 136 to 140 °C
O=C1CCC(C(=O)c2ccccc2)N1 (stereo unspecified) | 175 °C
N#Cc1ccc([C@@H]2CN(Cc3ccccc3)C[C@@]23NC(=O)N(c2cc(Cl)cc(Cl)c2)C3=O)cc1 (relative stereo) | 200 °C
COc1c(N2CCC(N)C(C)C2)c(F)c(N)c2c(=O)c(C(=O)O)cn(C3CC3)c12 (stereo unspecified) | 260 to 262 °C
CC1(c2ccc(N)c(C(=O)c3ccccc3)c2)OCCO1 | 108 to 111 °C
C1CCN(c2nc(N3CCCC3)c3nc(N4CCCCC4)nc(N4CCCC4)c3n2)CC1 | 254 to 256 °C
CC(C)C=C1CCC2(C1)C(=O)C=C(OC(C)C)CC2C (stereo unspecified) | 88 to 91 °C
O=C(O)Cc1noc(CC(=O)O)n1 | 109 to 111 °C
Nc1cc(=O)n(Cc2ccc(Br)c(Cl)c2)[nH]1 | 145 to 146 °C
O=C1Nc2ccccc2N(C(=O)CN2CCCCC2CN2CCCC2)c2ccccc21 (stereo unspecified) | 199 to 201 °C
CCOC(=O)c1nc(NC)sc1-c1cn2ccccc2n1 | 197 to 200 °C
NC(=O)c1nc(C2OC(CO)C(O)C2O)n[nH]1 (stereo unspecified) | 193 to 195 °C
CCCC1CCc2cc(OC)c(Cl)c(Cl)c2C1=O (stereo unspecified) | 127 to 129 °C
CCOC(=O)c1cnn2c1[nH]c(=O)c1cnc3c(cnn3CC)c12 | 263 to 265 °C
CCON=C(CC)C1=C(O)CC(c2ccc(NC=O)cc2)CC1=O (stereo unspecified) | 111 to 114 °C
O=C(O)c1cn(-c2ccc(F)cc2)c2c(F)c(N3Cc4cccc(Cl)c4C3)c(F)cc2c1=O | 283 to 291 °C
O=C(Nc1ccc(-c2nn(C(=O)c3ccccc3)c3c2Cc2ccccc2-3)cc1)c1ccccc1 | 241 °C
COc1ccc(C2=NN(C3CCN(CC(N)=O)CC3)C(=O)C(C)(C)C2)c2c1OC(C)(C)C2 | 215 to 216 °C
CS(=O)(=O)Nc1ccc2c(c1)C(=O)C(Br)CC2 (stereo unspecified) | 87 to 92 °C
CCC(O)(CC)c1cc(C)c(-c2cccc(OCc3ccc(CO)c(CO)c3)c2C)c(C)c1 | 105 to 107 °C
CCCCCCCCC1(C)SC(=O)C=C1OCC(=O)Nc1ccc(OC)cc1 (stereo unspecified) | 99 °C

Structure (SMILES) | melting point
CCCCCCCCCCCCOc1ccc(C#N)cc1-c1cc(C#N)ccc1OCCCCCCCCCCCC | 168 to 170 °C
CCCOC(=O)c1cc(NC(=O)c2ccccc2C)ccc1Cl | 103 to 105 °C
CC#CCOc1ccc(S(=O)(=O)N(C)C(C(=O)NO)c2ccc(OCCCNC(=O)OCC)cc2)cc1 (stereo unspecified) | 60 to 62 °C
CCOC(=O)c1cc(=NS(=O)(=O)c2ccccc2)c2c(Cl)cc(Cl)cc2[nH]1 | 184 to 185 °C
O=C(O)COc1ccc(-c2cc(O)c(Sc3ccccc3)c(=O)o2)cc1 | 186 to 188 °C
O=C(O)C(=O)N1CCC(Cc2ccccc2)CC1 | 109 to 112 °C
CCOC(=O)/C=C(C)/C=C/C(Br)=C(/C)c1ccc2c(c1)C(C)(C)CCC2(C)C | 97 to 98.5 °C
CC(=O)Nc1c(CC(=O)O)cccc1Oc1ccccc1 | 155 to 156 °C
COC(=O)c1cccnc1Oc1ccc(F)cc1 | 97 to 99 °C
COCN1C(C)=C(C(=O)OC)[C@H](c2cccc([N+](=O)[O-])c2)C(C(=O)OCOC(=O)C(C)(C)C)=C1C | 113 to 114 °C
NC(=O)CNC(=O)c1cccc(-c2ccc(F)c3cc(Cc4cc(F)cc(Cl)c4)sc23)c1 | 166 to 167 °C
Cc1cccc(-c2n[nH]cc2-c2ccc(F)c(-c3ccc(C(C)(C)O)cn3)c2)n1 | 169 to 172 °C
CCOC(=O)CCc1ccc(OCc2ccc(Cn3nc(C(C)(C)C)cc3C(C)(C)C)cc2)cc1F | 73 to 74 °C
COc1ccc(C(=O)Nc2cc(-c3c(-c4ccc(F)c(C)c4)nc4cccnn34)ccn2)cc1 | 222 to 223 °C
Cc1cc2c(c3ccc(=O)[nH]c13)OCC2C=O (stereo unspecified) | 230 to 232 °C
CNC(=O)c1cccc(-c2ccc(OC(C)C(O)CCc3cccnc3)cc2)c1 (stereo unspecified) | 54 to 55 °C
COc1cc(-n2c(-c3cc(-c4cnc5[nH]ccc5c4)ccn3)cn(C)c2=O)ccc1Cl | 223 °C
O=C(NC(=O)c1c(F)cccc1F)Nc1ccc2c(c1)SC(c1ccc(Cl)cc1Cl)O2 (stereo unspecified) | 206 to 208 °C
O=c1[nH]c2ccc(Br)cc2c(=O)n1CCCS | 220 to 221 °C
CN(Cc1cccc2c1C(=O)N(C1CCC(=O)NC1=O)C2=O)C(=O)Nc1ccc2ccccc2c1 (stereo unspecified) | > 260 °C
O=C(NCC12CC3CC(CC(C3)C1)C2)c1cc(-c2cc(F)ccc2C(=O)O)ccc1Cl | 120 to 124 °C
C=Cc1cc(O)cc2cc(-c3ccc(O)cc3)oc12 | 182 to 184 °C

Second part, the molecule after the results:

melting point | Structure (SMILES)
106 to 108 °C | CCCCSc1cc([N+](=O)[O-])cc(C(O)=NC)c1C(=O)O
82 to 83 °C | Oc1cccc2c(Oc3ccccc3)cccc12
137 to 138 °C | C[C@](N)(Cc1ccccc1)C(=O)O
181 °C | COc1ccc(C(=C2CN(C(c3ccccc3)c3ccccc3)C2)S(C)(=O)=O)cc1
262 to 264 °C | NC(=S)Nc1ncccn1
146 to 148 °C | COCc1c[nH]c(-c2ccc(OCc3ccccc3)cc2)n1
209 to 210 °C | C=CCC1(Cc2nc[nH]c2C)CCc2c(C)c3ccccc3n2C1=O (stereo unspecified)
53 to 54 °C | CCCCNc1c(C(=O)OCC)c(C)nc2sc(C)nc12
156 to 157 °C | O=C(O)CCCN(C(=O)c1cccc(C(F)(F)F)c1)c1ccccc1-c1ccccc1
121 to 122 °C | CC(C)OP(=O)(/C=C/CCn1cnc2c(N)ncnc21)OC(C)C
97 °C | O=C(O)c1ccccc1OCCN1CCC(c2cn(CC3CC3)c3cc(F)ccc23)CC1
221 to 222 °C | CCOC(=O)c1cn2c(ccc3ccc(Cl)cc32)n1
106 to 107 °C | Clc1cc(Cc2c(Cl)cccc2Cl)nc(Cl)n1
178 to 189 °C | c1nc(Nc2ccc3[nH]ccc3c2)c2sc(-c3ccsc3)cc2n1
152 to 153 °C | CC1=CC(OC(=O)c2ccc(N)cc2)C(O)C(C)(C)CC1=O (stereo unspecified)
135 to 137 °C | O=C1C2=C(CCCC2)C(=O)N1c1cc(CO)c(Cl)cc1F
134 to 136 °C | COC(=O)c1ccc(-c2noc(C)n2)s1
111 to 112 °C | CCCOc1ccc(SCCSc2ccc(OCCC)cc2)cc1
117 to 119 °C | COc1cc2ncnc(N3CCN(C(=S)Nc4ccc(C(F)(F)F)cc4)CC3)c2cc1OC
108 to 110 °C | OCCNc1nc(NCCO)nc(Nc2ccccc2Cl)n1
> 360 °C | Cc1nc2cc(C34CC5CC(CC(C5)C3)C4)cc(-c3ccc(C=C4SC(=S)NC4=O)cc3)c2o1
177 to 178 °C | O=C1C(=O)N(Cc2ccc(F)nc2)c2ccc(S(=O)(=O)N3CC[C@H]3COc3ccccc3)cc21
180 °C | CC(N(CCCl)C(N)=O)P(=O)(O)O (stereo unspecified)
241 to 243 °C | CCOCc1nc2c(N)nc3ccccc3c2n1CC(C)(C)C(N)=O
57 to 59 °C | CCCCCCCCCCCCCCCCCCOc1cc(NC(=O)OCc2ccccc2)cc(OC(C)=O)c1
205 to 207 °C | COc1ccc(S(=O)(=O)N2c3ccc(Br)cc3-c3ccccc3C2c2ccccc2)cc1Br (stereo unspecified)
126 to 136 °C | COc1ccc(C(=O)Nc2ccccc2CC(C)C2CCCCN2C)cc1 (stereo unspecified)
